Entries after “also recorded” stand apart in the source; their conditions may differ. Where two headings read alike, the source gives them in different places.
Experiments:
[1] = system: cell fusion (anti-HIV activity); assay: Inhibition of cell fusion by individual fatty acids; assay type: cell-based; details: Human immunodeficiency virus 1, read-out: percentage of inhibition of cell fusion
Protocol: Anti-HIV activity of the individual fatty acids was tested at four different concentrations. The values given in Table 1 represent the percentage of inhibition of cell fusion in the presence of each fatty acid.

uninfected macrophages = assay: Toxicity (LD50) on uninfected macrophages; assay type: cell-based, human
BlaM-Vpr-X4-tropic NL4-3 = assay: microbe, parasite or virus in culture; assay type: cell-based, HIV-1; details: for virus-positive cells: 37.6% untreated
ectocervix tissue = assay: Ectocervix tissue viability, MTT assay; assay type: cell-based, human; details: day 10 after infection, PA-treated compared to untreated tissue
X4-tropic NL4-3 [2] = assay: GHOST X4/R5 cell infection with X4-tropic NL4-3, flow cytometry; assay type: cell-based, HIV-1; details: for infected cells: 20% at 0 μM
NL4-3 = assay: MAGI cell assay with sCD4; assay type: cell-based, HIV-1; details: increasing concentrations of PA with 200 nM sCD4
[3] = system: R5-tropic primary isolate ADA
uninfected PBMCs = assay: Toxicity (LD50) on uninfected PBMCs; assay type: cell-based, human
sCD4 [4] = target: T1, sCD4 (Homo sapiens, UniProt P01730); assay: Saturation transfer difference NMR (STD-NMR) binding to sCD4; details: NMR buffer with 20% d6-DMSO, room temperature
T1 construct: soluble CD4 (sCD4) protein; purchased Progenics Pharmaceuticals
Protocol: FIGS. 15A-E show in vitro binding experiments of sCD4 with PA. FIG. 15A is a homonuclear NMR spectrum of 100 μM PA in the NMR buffer (10 mM KPO4 buffer, pH 7.0, 20% d6-DMSO, and 80% D2O). […] Tryptophan fluorescence was measured using an excitation wavelength of 280 nm. An increase of PA causes a red shift of 2 nm and quenching of the tryptophan fluorescence of sCD4.
We used a one-dimensional saturation transfer difference NMR (STD-NMR) experiment to characterize the binding of PA to sCD4 in vitro. […]
To perform the STD-NMR experiment, we used commercially available sCD4 (200 μg, 4.4 nmol, Progenics Pharmaceuticals), which was exchanged into the NMR buffer (160 μl of D2O and 40 μl d6-DMSO, containing 10 mM KPO4 buffer, pH 7.0). […] The NMR data were processed and analyzed using Topspin 2.0 (Bruker).
During the STD-NMR experiment, we titrated increasing concentrations of PA into sCD4 solution, and observed PA binding to sCD4, as shown by an increase in the intensity of the ligand STD-NMR signal (FIGS. 15A and 15B). The intensity of the STD signal was quantified by calculating the difference between the intensity of one signal in the off-resonance NMR spectrum, or reference NMR spectrum (I0), and the intensity of a signal in the on-resonance NMR spectrum (Isat) for various concentrations of the ligand (FIG. 15C). […]

X4-tropic NL4-3 [5] = system: X4-tropic NL4-3
R5-tropic 81A = assay: GHOST X4/R5 cell infection with R5-tropic 81A, flow cytometry; assay type: cell-based, HIV-1; details: for infected cells: 52.5% at 0 μM
HIV-1 R5 BaL = assay: HIV-1 BaL infection of human ectocervix tissue ex vivo, p24 ELISA; details: for HIV-1 replication (p24): 100 μM PA; for HIV-1 infection reduced: 200 μM PA; for inhibition at 100 µM: Human immunodeficiency virus 1, BAL, in Homo sapiens, read-out: inhibition of HIV-1 infection
Protocol: Ectocervix tissue samples from premenopausal women were directly cultured in a non-polarized manner in 48-well plates in 300 μl/well DMEM/F 12 media for 10 days. […] Tissue was washed 3 times and returned to culture with each respective treatment for the duration of the experiment. At the indicated time points, HIV-1 replication was tested by p24 ELISA, and a two-tailed Student's t-test with p<0.05 was used to calculate statistical significance.
Ectocervix tissue samples (3-mm^3 biopsy) from premenopausal women with conditions not involving cervix were obtained in accordance with AMC approved Institutional Review Board (IRB) protocol, and were processed within 1-3 hours after surgery. Tissue was cultured in a non-polarized manner in 48-well plates in 300 μl/well DMEM/F12 media (Invitrogen) supplemented with 10% FBS for the duration of the experiment. Tissue was treated with the indicated concentrations of PA and infected with HIV-1 R5 BaL at 0.3 MOI.
Before infection, cells or cervix tissue were incubated for the indicated time in culture media with different concentrations of either PA. Cells or tissue were then washed 3 times with HBSS (Invitrogen), and infected with HIV-1 at the indicated MOI. Infected cells or tissue were washed 3 times, and returned to culture with the same concentration of each treatment for the duration of experiment. Infection was monitored in cell-free supernatants by HIV-1 p24 core antigen content accumulation by enzyme-linked immunosorbent assay (ELISA) using an HIV-1 Ag kit, as specified by the manufacturer.

sCD4 [6] = target: T1, sCD4; assay: sCD4 tryptophan fluorescence titration; assay type: binding
Protocol: The tryptophan fluorescence of sCD4 was used to estimate binding affinity of PA to sCD4. Measurements were performed on a Fluorolog-3 fluorescence spectrophotometer (Horiba Jobin Yvon) at 25° in a 1-ml stirred cuvette. For fluorescence titration experiments, 2 μM of sCD4 (Progenics Pharmaceuticals) dissolved in the NMR buffer was used, and a 1 mM solution of PA dissolved in the NMR buffer was added in 1 μM steps. Titrations in the absence of sCD4 were performed as a reference. Tryptophan fluorescence was measured using an excitation wavelength of 290 nm. The fluorescence emission signal was subtracted from the signal of the reference titrations, and the differences adjusted by the dilution factor were plotted against the final concentration of added PA. Curve fitting (OriginLab) was performed to find the best values for the Kd using a single-site binding isotherm approximation.

[7] = Human immunodeficiency virus 1, NL43, SUP-T1, read-out: inhibition of HIV-1 fusion
[8] = Human immunodeficiency virus 1, read-out: inhibition of infection (R5)
[9] = saturating concentrations of PA

CCCCCCCCCCCCCCCC(=O)O [PA, palmitic acid]
inhibition at 0.5 µg/mL ([1]; 0.5 μg/ml): 33.5% | inhibition at 1 µg/mL ([1]; 1 μg/ml): 46.1% | inhibition at 2 µg/mL ([1]; 2 μg/ml): 64.2% | inhibition at 5 µg/mL ([1]; 5 μg/ml): 50.6% | LD50 (uninfected macrophages): 400 µM | virus-positive cells (BlaM-Vpr-X4-tropic NL4-3; 2 μM PA): 24.6% | virus-positive cells (BlaM-Vpr-X4-tropic NL4-3; 4 μM PA): 19.7% | virus-positive cells (BlaM-Vpr-X4-tropic NL4-3; 8 μM PA): 14.4% | inhibition at 2 µM (BlaM-Vpr-X4-tropic NL4-3; [7]): 34.6% | inhibition at 4 µM (BlaM-Vpr-X4-tropic NL4-3; [7]): 47.8% | inhibition at 8 µM (BlaM-Vpr-X4-tropic NL4-3; [7]): 61.6% | tissue toxicity (MTT viability assay) (ectocervix tissue): not toxic to tissue; also recorded: absence of toxicity | infected cells (X4-tropic NL4-3 [2]; 10 μM PA): 17.46% | infected cells (X4-tropic NL4-3 [2]; 20 μM PA): 15.25% | infected cells (X4-tropic NL4-3 [2]; 40 μM PA): 12.03% | infected cells (X4-tropic NL4-3 [2]; 60 μM PA): 9.62% | infected cells (X4-tropic NL4-3 [2]; 100 μM PA): 5.9% | IC50 (X4-tropic NL4-3 [2]; Human immunodeficiency virus 1, NL43, read-out: mean inhibitory concentration (IC50) for X4 inhibition): ~56 µM | inhibition at 10 µM (X4-tropic NL4-3 [2]; Human immunodeficiency virus 1, NL43, 10 μM PA): 13% | inhibition at 20 µM (X4-tropic NL4-3 [2]; Human immunodeficiency virus 1, NL43, 20 μM PA): 24% | inhibition at 40 µM (X4-tropic NL4-3 [2]; Human immunodeficiency virus 1, NL43, 40 μM PA): 40% | inhibition at 60 µM (X4-tropic NL4-3 [2]; Human immunodeficiency virus 1, NL43, 60 μM PA): 52% | inhibition at 100 µM (X4-tropic NL4-3 [2]; Human immunodeficiency virus 1, NL43, 100 μM PA): 70% | reversal of sCD4 inhibition of infection (NL4-3): completely reversed | IC50 ([3]; Human immunodeficiency virus 1, Macrophage): ~37 µM | inhibition of primary isolate ADA infection ([3]; up to 100 μM PA, day 10 (peak of replication)): 91% | mean toxicity lethal dose (LD50) (uninfected PBMCs): ≈ 154 μM | STD-NMR signal on titration into sCD4 solution (sCD4 [4]): binds to sCD4 specifically | IC50 (X4-tropic NL4-3 [5]; Human immunodeficiency virus 1, NL43, PBMC, 144 h): ~0.9 µM | inhibition of virus replication (X4-tropic NL4-3 [5]; up to 22 μM PA, day 6 (peak of infection)): 95% | infected cells (R5-tropic 81A; 10 μM PA): 44.77% | infected cells (R5-tropic 81A; 20 μM PA): 36.06% | infected cells (R5-tropic 81A; 40 μM PA): 29.88% | infected cells (R5-tropic 81A; 60 μM PA): 22.88% | infected cells (R5-tropic 81A; 100 μM PA): 14.45% | inhibition at 10 µM (R5-tropic 81A; [8]): 15% | inhibition at 20 µM (R5-tropic 81A; [8]): 31% | inhibition at 40 µM (R5-tropic 81A; [8]): 43% | inhibition at 60 µM (R5-tropic 81A; [8]): 56% | inhibition at 100 µM (R5-tropic 81A; [8]): 73% | IC50 (R5-tropic 81A; Human immunodeficiency virus 1, read-out: mean inhibitory concentration (IC50) for R5 inhibition): 51 µM | HIV-1 replication (p24) (HIV-1 R5 BaL; day 4, untreated 943): 604 pg p24/ml | HIV-1 replication (p24) (HIV-1 R5 BaL; day 7, untreated 1421): 960 pg p24/ml | HIV-1 replication (p24) (HIV-1 R5 BaL; day 10, untreated 785): 452 pg p24/ml | HIV-1 infection reduced (HIV-1 R5 BaL; day 4): 38% | HIV-1 infection reduced (HIV-1 R5 BaL; day 10): 43% | inhibition at 100 µM (HIV-1 R5 BaL; 96 h): 36% | inhibition at 100 µM (HIV-1 R5 BaL; 168 h): 32% | inhibition at 100 µM (HIV-1 R5 BaL; 240 h): 42% | Kd (sCD4 [6]): 1.5 ± 0.2 µM | quenching of the sCD4 tryptophan fluorescence (sCD4 [6]; [9]): 30% | red shift of the emission peak (sCD4 [6]; [9]): 2 nm
